According to patent publication US4228285A, “14-Hydroxy-6-oxamorphinans and 14-hydroxy-6-oxaisomorphinans” (priority 1979, dated 1980):
Read-outs that look alike come from different tables or passages of the source.

Experiments:
[1] = morphine antagonist rat tail flick test; format: in vivo; settings: subcutaneous; for ED50: sc
Source text: (§1) Table 2 compares the oxymorphone and morphine antagonist activity of two of the preferred embodiments of this invention with the antagonist activity of butorphanol, in the standard oxymorphone-induced Straub tail test and the morphine antagonist rat tail flick test. In the Straub tail test, subcutaneously, BL-5951 and BL-5961 were about 5 times and about 1.6 times, respectively, as potent as butorphanol. Orally, they were about 55 times and about 1.7 times, respectively, as potent as butorphanol.

[2] = oxymorphone-induced Straub tail test (oxymorphone antagonist activity); format: in vivo; settings: for antagonist potency relative to butorphanol, Straub tail test: vs butorphanol
Source text: as §1

[3] = format: in vivo; settings: subcutaneous
[4] = format: in vivo; settings: for agonist potency relative to butorphanol / agonist potency relative to morphine sulfate: mice; for agonist potency relative to butorphanol: vs butorphanol; for agonist potency relative to morphine sulfate: vs morphine sulfate
[5] = oral, read-out: Antagonist Activity ED50, Oxymorphone-induced Straub Tail, PO
[6] = sc, subcutaneous, read-out: Antagonist Activity ED50, Oxymorphone-induced Straub Tail, SC

Row | SMILES | ED50 [1] | antagonist potency relative to butorphanol, rat tail flick test ([1]; vs butorphanol) | antagonist potency relative to butorphanol, Straub tail test ([2]; oral) | ED50 [2, 5] | ED50 [2, 6] | antagonist potency relative to butorphanol, Straub tail test ([2]; subcutaneous) | agonist potency relative to butorphanol ([3]; rats, vs butorphanol) | agonist potency relative to morphine sulfate ([3]; rats, vs morphine sulfate) | Agonist Activity ED50, Rats (SC) [3] | antagonist potency relative to butorphanol, rat tail flick test (in words) ([1]; vs butorphanol) | agonist potency relative to butorphanol ([4]; oral) | agonist potency relative to morphine sulfate ([4]; oral) | agonist potency relative to butorphanol ([4]; subcutaneous) | agonist potency relative to morphine sulfate ([4]; subcutaneous) | Agonist Activity ED50, Mice (PO) ([4]; oral) | Agonist Activity ED50, Mice (SC) ([4]; subcutaneous)
1 | Oc1ccc2c(c1)[C@]13CCN(CC4CC4)[C@H](C2)[C@]1(O)CCOC3 (racemic) [BL-5951, 17-Cyclopropylmethyl-3,14β-dihydroxy-6-oxamorphinan] | ~0.09 mg/kg | about 4.8 times | about 55 times | ~1 mg/kg | ~0.2 mg/kg | about 5 times |  |  |  |  |  |  |  |  |  | 
2 | Oc1ccc2c(c1)[C@]13CCN(CC4CCC4)[C@H](C2)[C@]1(O)CCOC3 (racemic) [BL-5961, 17-Cyclobutylmethyl-3,14β-dihydroxy-6-oxamorphinan] | ~0.4 mg/kg |  | about 1.7 times | ~32 mg/kg | 0.61 mg/kg | about 1.6 times | about equipotent | about 4 times | 0.041 mg/kg | about equipotent | about 2.5 times | about 1.4 times | about 1.4 times | about 7 times | 2.2 mg/kg | 0.037 mg/kg
3 | CN1CC[C@]23COC(C)(C)C[C@@]2(O)[C@H]1Cc1ccc(O)cc13 (racemic) [BL-6021, 3,14β-Dihydroxy-7,7,17-trimethyl-6-oxamorphinan] |  |  |  |  |  |  |  |  |  |  |  |  | about 1.4 times | about 7 times |  | 0.037 mg/kg
4 | Oc1ccc2c(c1)[C@@]13CCCC[C@@]1(O)[C@@H](C2)N(CC1CCC1)CC3 [butorphanol, reference compound] | 0.43 mg/kg |  |  | 55 mg/kg | 0.98 mg/kg |  |  |  | 0.040 mg/kg |  |  |  |  |  | 5.6 mg/kg | 0.051 mg/kg
